Measured values from patent US6481153B1, “Turf additive formulation for reduction of localized dry spots due to water repellency” (Milliken & Company, priority 2001, dated 2002).

Tested on: not listed separately
Assay: hydrophobic sand humic acid removal test
Conditions: formulation diluted 42 parts water:1 part; 2 ml on 3 g humic acid coated sand; dried 60° C. 24 hours; 10 ml distilled water passed through; absorbance at 620 nm vs humic acid calibration curve
Description: Initially, a calibrated stock solution measurement curve for humic acid itself was generated for comparison purposes with tested humic acid removal samples. Thus, a 5000 ppm Humic Acid (purchased from Fluka Chemika) stock solution was prepared by dissolving 0.5 grams of Humic acid in 100 milliliters of water. Further standard solutions were prepared by serial dilution of the 5000 ppm sandard stock solution. The absorbance of each solution was measured at 620 nm on a Beckman Model DU 650 Spectrophotometer and a plot of absorbance versus concentration provided the Humic
The Examples, listed above, both inventive and comparative, were then each individually diluted with water (42 parts water:1 part example formulation). Two milliliters of each diluted example was then placed into the open end of a 19 inch clear plastic tube containing 3 grams of the above specific humic acid coated sand. One end was then plugged by a two-layer cheese cloth square of 1.5×1.5 cm and then the tube was situated vertically with the plugged end lower. The solutions were allowed to pass through the sand and were collected after passing through the plug. The sand was then placed in an oven at 60° C. for 24 hours to remove any residual moisture. The sand (3 grams) was again packed into a 19 inch clear plastic tube plugged at one end with the cheese cloth plug. Ten ml of distilled water was then passed through the sand and collected. The absorbance at 620 nm of the distilled water sample was then measured and compared to the humic acid calibration curve (from the Table, above) to determine the amount of humic acid removed from the coated sand. This test is, for the context of this invention, is the definition of “hydrophobic sand humic acid removal test”.

| Molecule | ppm Removed (Removal of Humic acid from Sand) |
| --- | --- |
| TPSA Di-TEA Salt [Example 8] | 246.46 ppm |
| fully neutralized n-octenyl succinic anhydride sulfanilic sodium salt [Example 9] | 1015.15 ppm |
| TPSA Mono-TEA Salt [Example 7] | 872.40 ppm |
| TPSA Dipotassium Salt [Example 6] | 837.52 ppm |
| O=C([O-])CCCCCCCCC(=O)[O-].[K+].[K+] [Example 4, Potassium sebacate] | 789.78 ppm |

Tested on: grass
Assay: not given
Conditions: in vivo; cited from earlier work

| Molecule | phytotoxicity to grass |
| --- | --- |
| [Na+].[OH-] [sodium hydroxide] | highly phytotoxic |
